Non-standard residues stand in square brackets, D forms with d. Residues, ends and D or L forms follow the SMILES beside them. *: point of attachment. Nle = CCCC[C@H](N)C(=O)O; Cbz = O=C(OCc1ccccc1)*
Assays:
hTERT [1] = assay: Ubiquitination of hTERT in H1299 cells (immunoprecipitation, anti-HA immunoblot); assay type: cell-based, human
Protocol: (§1) FIG. 2. hTERT is ubiquitinated prior to proteasome-mediated degradation. (A) H1299 cells were co-transfected with Flag-hTERT and HA-ubiquitin. Cells were either untreated or treated for 2 hours with 10 μg/ml ALLnN or 0.1 μM GA, or a combination of the two as specified above each lane. Immunoprecipitation was performed with anti-Flag antibody before probing with anti-hTERT or anti-HA antibodies as indicated besides each blot. Molecular weight markers are shown in kilodaltons. (B) H1299 cells co-transfected with Flag-hTERT and HA-ubiquitin were treated for 1 hour with the GA concentration indicated in the presence of 10 μM MG132. Immunoprecipitation was performed with anti-Flag antibody followed by immunoblotting using an anti-HA antibody probe. (C) H1299 cells co-transfected with Flag-hTERT and HA-ubiquitin were either untreated or treated for 2 hours with 10 μg/ml ALLnN as specified above each lane. Proteins were immunoprecipated with anti-Flag antibody followed by immunoblotting using an anti-HA antibody probe.
FIG. 4. MKRN1 functions as an E3 ubiquitin-ligase for hTERT in vitro and in vivo. (A) HA-tagged hTERT (residues 946-1132) was incubated MKRN1 or mutants in the presence of E1, E2, His6-ubiquitin (6×His tag disclosed as SEQ ID NO: 7). Samples were resolved by 6% SDS-PAGE and analyzed by immunoblotting with an anti-HA antibody probe. (B) H1299 cells were co-transfected with Flag-hTERT, HA-ubiquitin, MKRN1-V5, and together with either MKRN1^H307E-V5 or MKRN1^Δ^C-V5 as specified. Cells were untreated or treated with 10 μM MG132 for 2 hours. Anti-Flag immunoprecipitates and cell lysates were analyzed by immunoblotting with anti-HA antibody and anti-V5 antibody probes, respectively. (C) H1299 cells co-transfected with Flag-hTERT and HA-ubiquitin, and together with or without MKRN1-V5 as indicated were treated with 10 μM MG132 for the indicated times. Anti-Flag immunoprecipitates and cell lysates were analyzed by immunoblotting with anti-HA antibody and anti-V5 antibody probes, respectively.
H1299 cells were transiently transfected with the expression vectors indicated in the figure legends using TransFast transfection reagent (Promega, Madison, Wis.) according to the manufacturer's instructions. Cells were lysed with buffer containing 0.5% NP-40, 50 mM Tris-HCl (pH 7.5), 150 mM NaCl, 2 mM phenyl methylsulphonyl fluoride. After centrifugation at 12,000 rpm for 30 min, the supernatants were immunoprecipitated for 2 hours with anti-Flag (Sigma, St. Louis, Mo.) or anti-HA (Santa Cruz biotechnology, Santa Cruz, Calif.) antibodies and then incubated with Sepharose beads conjugated to Protein G (Amersham Biosciences Inc., Piscataway, N.J.). When ubiquitin conjugates of hTERT were detected, immunoprecipitation was performed with lysis buffer containing 0.1% SDS to dissociate its interacting proteins. Immunoblot analyses were performed using anti-hTERT (Santa Cruz biotechnology, Santa Cruz, Calif.), anti-V5 (Invitrogen, Carlsbad, Calif.), anti-HA, and anti-Flag antibodies.
GA-mediated protein degradation by the proteasome depends on conjugation of ubiquitin to the Hsp90 client protein (Isaacs et al. 2002; Citri et al. 2002). To determine whether hTERT is ubiquitinated in vivo prior to its degradation, H1299 cells co-transfected with Flag-tagged hTERT and HA-tagged ubiquitin constructs were treated with GA, ALLnN (a general proteasome inhibitor) or both. The immunoprecipitated products were evaluated by immunoblotting with selected probes as described in FIG. 2. […]

hTERT [2] = assay: hTERT protein levels by immunoblotting in H1299 cells; assay type: cell-based, human
Protocol: FIG. 1. hTERT is sensitive to the Hsp90 antagonist geldanamycin. (A) Down-regulation of ectopically expressed hTERT by GA. H1299 cells transfected with Flag-hTERT or Flag-TRF1 were treated with 0.1 μM GA for the indicated times. Lysates were resolved on 8% SDS-PAGE and analyzed by immunoblotting using an anti-Flag antibody probe. Cells were pretreated with 10 μM MG132 or E-64 for 2 hours, either alone or before treatment with GA. (B) Concentration dependence of GA on hTERT. H1299 cells transfected with Flag-hTERT or hTERT-HA were treated for 2 hours with the GA concentration indicated. The hTERT polypeptides were visualized with anti-Flag or anti-HA antibodies as marked by each blot. (C) Down-regulation of endogenous hTERT by GA. H1299 cells were treated with 0.1 μM GA for the indicated times, and cell lysates were analyzed by immunoprecipitation with anti-hTERT antibody followed by immunoblotting using same antibody probe. Cells were pretreated with 10 μM MG132 for 2 hours, either alone or before treatment with GA. Molecular weight markers are shown in kilodaltons. (D) H1299 cells were treated with 0.1 μM GA for the indicated times, and cell lysates were analyzed for telomerase activity by the TRAP assay. The lane labeled LB corresponds to the negative control (lysis buffer only). ITAS represents the internal telomerase assay standard. (E) Saos-2 cells transfected with Flag-hTERT or hTERT-HA or empty vector were untreated or treated with 0.1 μM GA for 16 hours, and cell lysates were analyzed for telomerase activity using the TRAP assay.
as §1
The human lung carcinoma cell line H1299 was cultured in RPMI-1640 medium, and the human fibrosarcoma cell line HT1080 was cultured in Dulbecco's modified Eagle's medium supplemented with 10% fetal bovine serum, 100 units/ml penicillin, and 100 μg/ml streptomycin in 5% CO2 at 37° C. The human osteosarcoma cell line Saos-2 was maintained in McCoy's 5A medium containing 15% fetal bovine serum, 100 units/ml penicillin, and 100 μg/ml streptomycin. To establish cell lines stably expressing MKRN1, the MKRN1-V5 construct was transfected into HT1080 cells using Lipofectamine Plus (Invitrogen, Carlsbad, Calif.) according to the manufacturer's instructions. As a control, HT1080 cells were also stably transfected with an empty vector. Multiple independent single clones were isolated and checked for protein expression by immunoblotting with anti-V5 antibody.
H1299 cells were transiently transfected with the expression vectors indicated in the figure legends using TransFast transfection reagent (Promega, Madison, Wis.) according to the manufacturer's instructions. Cells were lysed with buffer containing 0.5% NP-40, 50 mM Tris-HCl (pH 7.5), 150 mM NaCl, 2 mM phenyl methylsulphonyl fluoride. […]

SMILES | hTERT-ubiquitin conjugates without MKRN1 co-expression (hTERT [1]; H1299 Flag-hTERT plus HA-ubiquitin, 10 μM MG132, 45-60 minutes) | ubiquitin conjugates of hTERT (hTERT [1]; H1299 co-transfected with Flag-hTERT, HA-ubiquitin, MKRN1-V5, 10 μM MG132, 2 hours) | effect on GA-induced degradation of endogenous hTERT (hTERT [2]; H1299, 10 μM MG132 pretreatment 2 hours before GA) | effect on GA-induced down-regulation of hTERT (hTERT [2]; H1299 Flag-hTERT, 10 μM pretreatment 2 hours, then GA 4 hours) | hTERT expression levels, inhibitor alone (hTERT [2]; H1299 Flag-hTERT, 10 μM, absence of GA, relative to untreated controls) | polyubiquitinated hTERT forms in absence of GA (hTERT [1]; H1299, 10 μg/ml ALLnN, 2 hours, FIG. 2C) | ubiquitinated hTERT (hTERT [1]; H1299 Flag-hTERT and HA-ubiquitin, 10 μg/ml ALLnN, 2 hours, FIG. 2A) | effect on GA-induced decrease of hTERT levels (hTERT [2]; H1299 Flag-hTERT and HA-ubiquitin, 10 μg/ml ALLnN plus 0.1 μM GA, 2 hours) | hTERT levels (hTERT [2]; H1299 co-transfected with Flag-hTERT and HA-ubiquitin, 2 hours, single agent (0.1 μM GA or 10 μg/ml ALLnN))
CC(C)C[C@@H](C=O)NC(=O)[C@H](CC(C)C)NC(=O)[C@H](CC(C)C)NC(=O)OCc1ccccc1 [MG132] (Cbz-Leu-Leu-Leu-aldehyde) | low levels were detected | easily detected | rescued | rescued | did not cause a significant change |  |  |  | 
CCCC[C@@H](C=O)NC(=O)[C@H](CC(C)C)NC(=O)[C@H](CC(C)C)NC(C)=O [ALLnN] (Ac-Leu-Leu-[Nle]-aldehyde) |  |  |  |  |  | significantly elevated | dramatically elevated | reversed this trend | did not affect

Reference: patent US7901906B2, “Targeting of MKRN1 for identifying cancer treatment agents” (University of Central Florida Research Foundation, Inc., priority 2006, dated 2011)
